Consider 10 molecules from patent US20140256660A1, “ANTIBIOTIC CONJUGATES LINKED WITH STEROID DRUGS” (Allergan, Inc., priority 2013, published 2014).

This data set concerns human recombinant carboxylesterases. Put plainly: In vitro metabolic stability (rate of metabolite formation) in human recombinant carboxylesterases. As to conditions: human recombinant carboxylesterases 0.1 mg/mL, 1 μM test compound, pH 6.0, 37° C. It counts as in vitro ADME. The method, then: Dutch Belted rabbits were euthanized with an overdose of sodium pentobarbital. The corneas were collected and homogenized in ice-cold potassium chloride solution (pH=7.4). The homogenate was centrifuged at 755×g for 30 min at 4° C. and aliquots of the supernatant were stored at or below −70° C. until metabolism experiments were conducted. Prior to storing the homogenates an aliquot was removed for determination of protein concentrations by calculating the 260 nm absorbance using a spectrophotometer. Human recombinant carboxylesterases were purchased from a commercial vendor (BD Gentest™, Bedford, Mass.)
All metabolic stability experiments were performed in triplicate in 96-well plate format. The final incubation mixture contained 1 μM test compound, 0.3 mg/mL corneal protein homogenate or 0.1 mg/mL human recombinant carboxylesterase mixture in a final volume of 0.5 mL 0.1 M potassium phosphate buffer (pH=6.0). The final percentage of solvent in the incubation was less than 1.0% to prevent inhibition of enzymatic activity. Following a pre-incubation at 37° C., test article (i.e. ester linked hybrids) was added to initiate the reaction. At designated time points (typically less than 60 minutes to capture the linear range of metabolite formation), 0.05 mL aliquots were removed from the incubation mixtures using a clean pipet tip and immediately placed in organic solvent to stop any esterase activity.
Hydrolysis of the metabolites was confirmed to be due to esterase activity and not chemical lability. The samples were analyzed by liquid chromatography with mass spectrometry (LC-MS/MS) detection to determine the metabolite concentrations resulting from the metabolism of ester linked hybrids. Internal standards were used to compensate for variability from sample processing, chromatographic elution, mass spectrometer response and ion suppression by matrix components.

Turning to `COc1c(N2CCNC(C)C2)c(F)cc2c(=O)c(C(=O)OCCCC(=O)OCC(=O)[C@]3(O)CC[C@@H]4[C@H]5CCC6=CC(=O)C=C[C@@]6(C)C5[C@H](O)C[C@]43C)cn(C3CC3)c12` (relative stereo) [Compound 41, 4-{2-[(8R,10S,11R,13R,14R,17S)-11,17-dihydroxy-10,13-dimethyl-3-oxo-6,7,8,9,10,11,12,13,14,15,16,17-dodecahydro-3H-cyclopenta[a]phenanthren-17-yl]-2-oxoethoxy}-4-oxobutyl rel-1-cyclopropyl-6-fluoro-8-methoxy-7-(3-methylpiperazin-1-yl)-4-oxo-1,4-dihydroquinoline-3-carboxylate], the “Rate of formation Metabolite 1 (Gatifloxacin)” value (metabolite Gatifloxacin) was determined as 7.60 ± 2.1 nM/min/mg. Also, under “metabolite Prednisolone”, the “Rate of formation Metabolite 2 (Prednisolone)” value came out at 74.6 ± 4.1 nM/min/mg.

Take `COc1c(N2CCNC(C)C2)c(F)cc2c(=O)c(C(=O)OCOC(=O)CCC(=O)OCC(=O)[C@]3(O)CC[C@@H]4[C@H]5CCC6=CC(=O)C=C[C@@]6(C)C5[C@H](O)C[C@]43C)cn(C3CC3)c12` (relative stereo) [Compound 44, ({[1-cyclopropyl-6-fluoro-8-methoxy-7-(3-methylpiperazin-1-yl)-4-oxo-1,4-dihydroquinolin-3-yl]carbonyl}oxy)methyl 2-[(8R,10S,11R,13R,14R,17S)-11,17-dihydroxy-10,13-dimethyl-3-oxo-6,7,8,9,10,11,12,13,14,15,16,17-dodecahydro-3H-cyclopenta[a]phenanthren-17-yl]-2-oxoethyl rel-butanedioate]: the “Rate of formation Metabolite 2 (Gatifloxacin)” value (metabolite Gatifloxacin) was 760 ± 110 nM/min/mg. Where the note is “metabolite Prednisolone”, the “Rate of formation Metabolite 1 (Prednisolone)” value is reported as 365 ± 32 nM/min/mg.

Turning to `COc1c(N2CCNC(C)C2)c(F)cc2c(=O)c(C(=O)OCOC(=O)OCC(=O)[C@]3(O)CC[C@@H]4[C@H]5CCC6=CC(=O)C=C[C@@]6(C)C5[C@H](O)C[C@]43C)cn(C3CC3)c12` (relative stereo) [Compound 42, [({2-[(8R,10S,11R,13R,14R,17S)-11,17-dihydroxy-10,13-dimethyl-3-oxo-6,7,8,9,10,11,12,13,14,15,16,17-dodecahydro-3H-cyclopenta[a]phenanthren-17-yl]-2-oxoethoxy}carbonyl)oxy]methyl rel-1-cyclopropyl-6-fluoro-8-methoxy-7-(3-methylpiperazin-1-yl)-4-oxo-1,4-dihydroquinoline-3-carboxylate], the “Rate of formation Metabolite 2 (Gatifloxacin)” value (metabolite Gatifloxacin) is given as 668 ± 102 nM/min/mg. For the same molecule, for the setting “metabolite Prednisolone”, the “Rate of formation Metabolite 1 (Prednisolone)” value stood at 633 ± 85 nM/min/mg.

With `COc1c(N2CCN(C(=O)OCOC(=O)CCC(=O)OCC(=O)[C@@]3(O)[C@@H](C)CC4C5CCC6=CC(=O)C=C[C@]6(C)[C@@]5(F)[C@@H](O)C[C@@]43C)C(C)C2)c(F)cc2c(=O)c(C(=O)O)cn(C3CC3)c12` (relative stereo) [Compound 2, rel-1-cyclopropyl-6-fluoro-7-[4-({[(4-{2-[(9R,10S,11S,13S,16S,17R)-9-fluoro-11,17-dihydroxy-10,13,16-trimethyl-3-oxo-6,7,8,9,10,11,12,13,14,15,16,17-dodecahydro-3H-cyclopenta[a]phenanthren-17-yl]-2-oxoethoxy}-4-oxobutanoyl)oxy]methoxy}carbonyl)-3-methylpiperazin-1-yl]-8-methoxy-4-oxo-1,4-dihydroquinoline-3-carboxylic acid], the “Rate of formation Metabolite 1 (Betamethasone)” value (metabolite Betamethasone) is listed as 109 ± 2 nM/min/mg. Further, the “Rate of formation Metabolite 2 (Gatifloxacin)” value (metabolite Gatifloxacin) was found to be 112 ± 4 nM/min/mg.

For the molecule `COc1c(N2CC3CCCN(C(=O)OCOC(=O)CCC(=O)N[C@@H](C(=O)OCC(=O)[C@]4(O)CCC5C6CCC7=CC(=O)C=C[C@@]7(C)C6[C@H](O)C[C@]54C)C(C)C)C3C2)c(F)cc2c(=O)c(C(=O)O)cn(C3CC3)c12` (relative stereo) [Compound 61, rel-1-cyclopropyl-7-{1-[(10R)-14-[(10S,11R,13R,17S)-11,17-dihydroxy-10,13-dimethyl-3-oxo-6,7,8,9,10,11,12,13,14,15,16,17-dodecahydro-3H-cyclopenta[a]phenanthren-17-yl]-5,8,11,14-tetraoxo-10-(propan-2-yl)-2,4,12-trioxa-9-azatetradecan-1-oyl]octahydro-6H-pyrrolo[3,4-b]pyridin-6-yl}-6-fluoro-8-methoxy-4-oxo-1,4-dihydroquinoline-3-carboxylic acid], the “Rate of formation Metabolite 2 (Moxifloxacin)” value (“Rate … (Moxifloxacin)” below) is 18.5 ± 1.7 nM/min/mg. Besides, the “Rate of formation Metabolite 1 (Prednisolone)” value (metabolite Prednisolone) turned out to be 11.8 ± 0.5 nM/min/mg.

Regarding `COc1c(N2CC3CCCN(C(=O)OCOC(=O)CCC(=O)OCC(=O)[C@]4(O)CC[C@@H]5[C@H]6CCC7=CC(=O)C=C[C@@]7(C)[C@@H]6[C@H](O)C[C@]54C)C3C2)c(F)cc2c(=O)c(C(=O)O)cn(C3CC3)c12` (relative stereo) [Compound 59, rel-1-cyclopropyl-7-[1-({[(4-{2-[(8R,9R,10S,11R,13R,14R,17S)-11,17-dihydroxy-10,13-dimethyl-3-oxo-6,7,8,9,10,11,12,13,14,15,16,17-dodecahydro-3H-cyclopenta[a]phenanthren-17-yl]-2-oxoethoxy}-4-oxobutanoyl)oxy]methoxy}carbonyl)octahydro-6H-pyrrolo[3,4-b]pyridin-6-yl]-6-fluoro-8-methoxy-4-oxo-1,4-dihydroquinoline-3-carboxylic acid], the “Rate … (Moxifloxacin)” value was 350 ± 180 nM/min/mg. In addition, the “Rate of formation Metabolite 1 (Prednisolone)” value (metabolite Prednisolone) was determined as 416 ± 192 nM/min/mg.

As for `COc1c(N2CCNC(C)C2)c(F)cc2c(=O)c(C(=O)OC(C)OC(=O)OCC(=O)[C@]3(O)CC[C@@H]4[C@H]5CCC6=CC(=O)C=C[C@@]6(C)C5[C@H](O)C[C@]43C)cn(C3CC3)c12` (relative stereo) [Compound 43, 1-[({2-[(8R,10S,11R,13R,14R,17S)-11,17-dihydroxy-10,13-dimethyl-3-oxo-6,7,8,9,10,11,12,13,14,15,16,17-dodecahydro-3H-cyclopenta[a]phenanthren-17-yl]-2-oxoethoxy}carbonyl)oxy]ethyl rel-1-cyclopropyl-6-fluoro-8-methoxy-7-(3-methylpiperazin-1-yl)-4-oxo-1,4-dihydroquinoline-3-carboxylate], the “Rate of formation Metabolite 2 (Gatifloxacin)” value (metabolite Gatifloxacin) stood at 419 ± 8 nM/min/mg. Moreover, the “Rate of formation Metabolite 1 (Prednisolone)” value (metabolite Prednisolone) was determined as 298 ± 13 nM/min/mg.

Take “rel-1-cyclopropyl-6-fluoro-7-[4-(4-{2-[(8R,9S,10R,11R,13R,14R,16S,17S)-9-fluoro-11,17-dihydroxy-10,13,16-trimethyl-3-oxo-6,7,8,9,10,11,12,13,14,15,16,17-dodecahydro-3H-cyclopenta[a]phenanthren-17-yl]-2-oxoethoxy}-4-oxobutanoyl)-3-methylpiperazin-1-yl]-8-methoxy-4-oxo-1,4-dihydroquinoline-3-carboxylic acid [Compound 10]”: the “Rate of formation Metabolite 1 (Dexamethasone)” value is listed as 737 ± 28 nM/min/mg. Besides, where the note is “metabolite Gatifloxacin”, the “Rate of formation Metabolite 2 (Gatifloxacin)” value is listed as 7.71 ± 0.57 nM/min/mg.

For `COc1c(N2C[C@@H]3CCCN[C@@H]3C2)c(F)cc2c(=O)c(C(=O)OCOC(=O)OCC(=O)[C@]3(O)CC[C@@H]4[C@H]5CCC6=CC(=O)C=C[C@@]6(C)C5[C@H](O)C[C@]43C)cn(C3CC3)c12` (relative stereo) [Compound 64, [({2-[(8R,10S,11R,13R,14R,17S)-11,17-dihydroxy-10,13-dimethyl-3-oxo-6,7,8,9,10,11,12,13,14,15,16,17-dodecahydro-3H-cyclopenta[a]phenanthren-17-yl]-2-oxoethoxy}carbonyl)oxy]methyl rel-1-cyclopropyl-6-fluoro-8-methoxy-7-[(4aS,7aS)-octahydro-6H-pyrrolo[3,4-b]pyridin-6-yl]-4-oxo-1,4-dihydroquinoline-3-carboxylate], the “Rate … (Moxifloxacin)” value amounted to 644 ± 20 nM/min/mg. In addition, the “Rate of formation Metabolite 1 (Prednisolone)” value (metabolite Prednisolone) turned out to be 641 ± 22 nM/min/mg.

As to `COc1c(N2CCNC(C)C2)c(F)cc2c(=O)c(C(=O)OCCCOC(=O)CCC(=O)OCC(=O)[C@]3(O)[C@@H](C)C[C@@H]4[C@H]5CCC6=CC(=O)C=C[C@@]6(C)[C@]5(F)[C@H](O)C[C@]43C)cn(C3CC3)c12` (relative stereo) [Compound 18, 3-({[1-cyclopropyl-6-fluoro-8-methoxy-7-(3-methylpiperazin-1-yl)-4-oxo-1,4-dihydroquinolin-3-yl]carbonyl}oxy)propyl 2-[(8R,9S,10R,11R,13R,14R,16S,17S)-9-fluoro-11,17-dihydroxy-10,13,16-trimethyl-3-oxo-6,7,8,9,10,11,12,13,14,15,16,17-dodecahydro-3H-cyclopenta[a]phenanthren-17-yl]-2-oxoethyl rel-butanedioate], the “Rate of formation Metabolite 1 (Dexamethasone)” value stood at 59.7 ± 5.15 nM/min/mg. Moreover, under “metabolite Gatifloxacin”, the “Rate of formation Metabolite 2 (Gatifloxacin)” value is on record as 2.44 ± 0.87 nM/min/mg.
